From US11198897B2, “Rapid antibiotic susceptibility testing by tracking sub-micron scale motion of single bacterial cells” (Arizona Board of Regents on behalf of Arizona State …, priority 2017, dated 2021)

Experiments:
[1] = tested on: UPEC cells spiked in human urine; assay: Culture AST: bactericidal activity against UPEC in spiked urine samples by plating on Luria agar; type: cell-based, uropathogenic E. coli
Experimental: (§1) Broth microdilution assay was used to determine the polymyxin B MIC and MBC following a standard protocol.^54 Exponential phase UPEC CFT073 cultures were grown as described above, and bacterial suspensions (1×10^8 cfu/ml) were prepared in Mueller Hinton broth. Bacterial suspensions (100 μl of 5×10^6, 10^7, or 10^8 cfu/ml) were added to wells of 96-well microtiter plates containing polymyxin B (0.125-8 μg/ml). The MIC was determined by measuring the absorbance at 600 nm after 16 h standing incubation at 37° C. Cell viability and MBC values were determined by plating duplicate 10-fold serial dilutions for each sample onto Luria Broth agar plates and enumerating colonies after 16 h incubation at 37° C.
Referring now to FIG. 17A-FIG. 17F plots of bactericidal activity of polymyxin B against UPEC in spiked urine samples are shown. UPEC cells were added to human urine samples and exposed to different polymyxin B concentrations. At indicated times, 5 μl of each suspension was inoculated onto Luria agar. After incubation at 37° C. for 16 h, colonies were enumerated and recorded as cfu/ml. The bars with vertical striping represent the initial cfu/ml of UPEC cells in urine, and bars with horizontal striping represent cfu/ml of UPEC cells upon exposure to clinically-relevant concentrations of polymyxin B (antibiotics added immediately after the baseline measurement) in urine.

[2] = tested on: UPEC cells in human urine; assay: Rapid AST by motion tracking (DAVG) of UPEC cells in human urine samples; type: cell-based, uropathogenic E. coli
Experimental: Referring now to FIG. 5A-5F, plots of DAVG of UPEC cells in human urine exposed to increasing concentrations of polymyxin B are there illustrated. UPEC cells (5×10^6 cfu/ml) were added to human urine samples, and DAVG was determined over time in the absence and presence of clinically-relevant concentrations of polymyxin B. The bars with vertical striping represent the baseline DAVG measurement of UPEC cells in urine. DAVG measurement of UPEC cells upon exposure to clinically-relevant concentrations of polymyxin B (bars with horizontal striping; antibiotics added immediately after the baseline measurement) and a high, bactericidal concentration of polymyxin B (bars with diagonal striping, 0.5 mg/ml added after the 90-min measurement). DAVG of cells in wells with (a) 0, (b) 0.25, (c) 1, (d) 2, (e) 4, and (f) 8 μg/ml of polymyxin B. *, p<0.05; ns, not significant.
To test the feasibility of an example of a method for analyzing clinically relevant samples, urine samples collected from healthy patients were spiked with UPEC bacterial cells. Following surface tethering, images were recorded from six different wells with polymyxin B doses varying from 0 to 8 μg/ml.
By repeating these experiments with increasing concentrations of UPEC cells in urine samples, the polymyxin B MBC90 min was determined to be between 4 and 8 μg/ml (Table 1). These MBC data corroborated the previous experiments with 5×10^6 cfu/ml and standard culturing methods which proceeded for 16 h (see also FIG. 17A-FIG. 17F).
An aliquot of frozen E. coliO157:H7 or E. coli CFT073 strain was thawed and used to inoculate 3 ml of Luria broth (LB) one day before the experiments. The overnight, saturated culture grown at 37° C. was diluted into fresh LB at a concentration of ˜10^7 cfu/ml and grown at 37° C. with gentle rotary mixing until the cultures reached an OD600 of 0.56, indicating the mid-logarithmic phase of growth. The corresponding concentration of the bacteria was 4.67×10^8 cfu/ml. Bacterial cells were collected by centrifugation at 2000×g for 15 min and resuspended in 1 ml PBS (1×) to an OD of 0.56. […]

UPEC CFT073 = assay: Broth microdilution assay (MIC, MBC) in Mueller Hinton broth; type: cell-based, uropathogenic E. coli
Experimental: as §1
Referring now to FIG. 15, a plot measuring inhibition of UPEC in Mueller Hinton broth (MHB) after incubation with increasing polymyxin B concentrations is shown. Growth inhibition of UPEC in Mueller Hinton broth (MHB) after incubation with increasing polymyxin B concentrations. UPEC cells (5×10^6/ml) were incubated in MHB for 16 h at 37° C., followed by optical density measurements (OD600). Average and standard deviation OD600 measurements collected from triplicate experiments were plotted.
Referring now to FIG. 16, a table illustrating growth inhibition and bactericidal activity of the antibiotic polymyxin B is shown. After determining growth inhibition after […]

E. coli O157:H7 = assay: Sub-μm motion tracking of antibody-tethered E. coli O157:H7 cells exposed to antibiotic; type: cell-based, Escherichia coli; conditions: for Distance (root-mean-square displacement of cell center over 20 sec) of a single cell: 0.5 mg/ml polymyxin B
From the text: Referring now to FIG. 2A an image of an E. coli O157:H7 bacterial cell with superimposed motion of the cell center over 20 sec shown as darkened dots is shown. E. coli O157:H7 cells 202 tethered to the glass slide were imaged. […] Scale Bar 203 is 1 μm. 43 The center of each bacterial cell was identified in each image frame (described in more detail below with reference to FIG. 6A-FIG. 6D) and plotted as data points 204 in FIG. 2A′.
As there shown, plot 202 plots motion data 204 in nm in X and Y coordinates ranging from −400 nm to 400 nm. The center positions of the bacterial cell (center) at different moments are shown and reveal the sub-μm scale motion of the cell. For quantitative analysis of the sub-μm motion of the bacterial cell, “Distance” is defined as the root-mean-square of the position over 20 seconds. Note that the motion ranges from about −200 nm to 200 nm displacement along both coordinates.
Referring now to FIG. 3A, images of a bacterial cell and displacement of the cell center in 1×PBS before (0 min) and after polymyxin B addition (2 and 5 min) are shown. Images 301, 302, 303 of a bacterial cell and displacement of the cell center 310 in 1×PBS before (0 min) and after polymyxin B addition (2 and 5 min). Antibiotic effects on the sub-μm motion were examined using a lethal dose of polymyxin B (0.5 mg/ml). Images 301, 302, 303 show the bright-field images of an alive bacterial cell before, 2 min, and 5 min, respectively after exposure to 0.5 mg/ml polymyxin B, where the positions of the bacterial cell before and after the exposure to polymyxin B, represented by indicia 310, 310A and 310B respectively. Scale bar 311 is set at 1 μm. #, p=0.065.
The average E. coli O157:H7 distance over 20 sec. in 1×PBS was 278 nm as indicated by bar 350, which reduced to 225 nm within 2 min after addition of 0.5 mg/ml polymyxin B, indicated by bar 352 and further to 65 nm at 5 min post-antibiotic exposure as plotted in plot 324 and represented by bar 354.
A robust AST method must work for a bacterial population that contains a mixture of loosely and tightly bound cells. […] For this mixed population of bound cells, the DAVG was 265 nm (FIG. 3C) before the addition of polymyxin B and dropped to 123 nm at 10 min post-antibiotic exposure (FIG. 3D).
Clean BK7 glass coverslips were coated with 1.5 nm chromium and 48 nm gold and used as sensing chips. The chips were rinsed with deionized water and ethanol multiple times followed by drying with nitrogen gas and cleaning with a hydrogen flame. For antibody surface, the cleaned chips were submerged in 1 mM PEG/PEG-COOH ethanol solution and left in the dark for 24 h to coat a PEG/PEG-COOH self-assembled monolayer (SAM) on each chip. The PEG/PEG-COOH SAM-coated chips were activated with 500 μl of a freshly prepared mixture of 0.1 M NHS and 0.4M EDC in 1:1 ratio to produce NHS ester receptors, which react with the primary amine groups on the antibodies via an amide bond. Chips with activated PEG/PEG-COOH SAM were cleaned with deionized water and blown dry with nitrogen gas. […]
(§2) To quantify bacterial motion, region props MATLAB command was used to obtain the “Centroid” 603 for each segmented cell in the binary images. The centroid is the X and Y coordinates of the bacterial cell center and is calculated as the mean of all non-zero pixels which the bacterial cell occupies. […]

UPEC cells = assay: Rapid AST by motion tracking (DAVG) of APTES-tethered UPEC cells in 1×PBS; type: cell-based, uropathogenic E. coli
Experimental: To apply the above motion-tracking method to AST of the clinically relevant UPEC strain, UPEC cells were tethered to the glass surface via APTES surface chemistry and conjugation to the amine group of a bacterial surface protein. Antibiotic dose-dependent experiments were performed in a multiplexed format using multi-well slides and a 40× objective. First, baseline images were captured at 0 min for each well. Subsequently, polymyxin B at clinically relevant concentrations (4, 2, 0.5, and 0.25 μg/ml) was added to different wells, and images were recorded at 15 min intervals for 75 min. Finally, as a positive control, a bactericidal dose (0.5 mg/ml) of polymyxin B was added to all wells, and images were recorded after incubation for 15 min (at 90 min). The control well (Well 1) initially harbored 100 tethered cells (as described below with reference to FIG. 8A) with an initial DAVG of 228 nm (FIG. 4A). Over time (0-75 min), the number of cells on the surface increased gradually (as described below with reference to FIG. 8A) due to replication of the surface-tethered cells (as described below with respect to FIG. 9A-10B). During the first 15 min, DAVG increased from 228 nm to 388 nm, followed by a gradual decrease from 388 to 227 nm over 75 min (FIG. 4A). […] DAVG vs. time was analyzed for polymyxin B varying between 0.5-4 μg/ml (FIG. 4B-FIG. 4E), showing clear correlation between the sub-μm motion and antibiotic concentration. […]
All E. coli O157:H7 experiment image sequences were collected at 106 fps at a pixel resolution of 640×480 using the Pike-032B CCD camera. […] The stage was translated to each well sequentially at the marker spot area and recorded 5 sec image sequences for each well. […]
as §2

[3] = after addition of 0.5 mg/ml polymyxin B

polymyxin B was tested, and the “Colonies on Luria agar after bactericidal concentration” value ([1]; 0.5 mg/ml added after the 90-min measurement, additional 15-min incubation) was “no colonies were detected”, the “MBC against UPEC cells spiked in human urine” value ([1]; plating on Luria agar, 16 h at 37° C.) was 2 µg/mL and the “DAVG change in urine” value ([2]; 4 and 8 μg/ml polymyxin B, p<0.05, to values similar to lethal 0.5 mg/ml dose) was “decreased significantly”. The “DAVG change over time in urine” value ([2]; 90 min incubation with 0.25, 1, or 2 μg/ml polymyxin B) was “either remained unchanged or increased”, the “Rapid AST MBC 90 min” value ([2]; UPEC concentration in urine 10^8 cfu/ml) was 4 µg/mL and the “Standard incubation (16 h) MBC” value (UPEC CFT073; quantitative plating after 16 h incubation) was 2 µg/mL. The “Minimum inhibitory concentration (MIC)” value (UPEC CFT073; standard microdilution broth assay, 16 h incubation) was 1 µg/mL, the “Distance (root-mean-square displacement of cell center over 20 sec) of a single cell” value (E. coli O157:H7; 2 min after addition, 278 nm in 1×PBS before) was 225 nm and the “Distance (root-mean-square displacement of cell center over 20 sec) of a single cell” value (E. coli O157:H7; 5 min post-antibiotic exposure, 278 nm before) was 65 nm. For the same substance, the “Viable cells on overnight culturing after exposure” value (E. coli O157:H7; 5 min exposure to lethal dose 0.5 mg/ml) was “no viable cells”, the “DAVG change of completely tethered bacterial cells” value (E. coli O157:H7; [3]) was “no change” and the “DAVG change of loosely tethered bacterial cells” value (E. coli O157:H7; [3]) was “significant decrease”. The “DAVG after lethal polymyxin B concentration” value (UPEC cells; control well, 0.5 mg/ml added after 75-min measurement, 227 nm before, p<0.05) was 64 nm, the “Number of cells on the surface over 75 min” value (UPEC cells; polymyxin B 0.5-4 μg/ml, indicating growth inhibition) was “remained constant” and the “Minimum bactericidal concentration at 75 min (MBC75 min)” value (UPEC cells; rapid AST, 75 min, 1×PBS) was 4 µg/mL.
